Measured values taken from paper PMC8877448, “In Vitro and In Vivo Pharmacological Characterization of a Novel TRPM8 Inhibitor Chemotype Identified by Small-Scale Preclinical Screening” (International Journal of Molecular Sciences, 2022).
Where “and” joins values, the source holds several entries; their conditions need not be identical. Equal entries are not always repeated. Where two headings read alike, the source gives them in different places.

Key:
[1] = target: T1, rat isoform of TRPM8 channels (Rattus norvegicus, UniProt Q8R455); test: Ca2+ fluorometric assay, block of menthol-evoked responses in HEK293 cells stably expressing rTRPM8; type: cell-based; conditions: for potency compared with AMTB: calcium fluorometric assay; for Efficacy: percentage of inhibition of menthol evoked currents at the maximum concentration used (50 µM)
T1 construct: expressed in transfected cells
Experimental: The inhibitory activity of the 21 selected compounds over TRPM8 was challenged by Ca^2+ fluorometric assays using HEK293 cells stably expressing the rat isoform of TRPM8 channels. Menthol and AMTB were used as reference agonist and antagonist, respectively. The compounds were initially tested at three different concentrations (50 μM, 5 μM, and 0.5 μM) to assess their ability in blocking 100 μM menthol evoked currents.
(§1) Cells, HEK-293 cells stably expressing rTRPM8 or hTRPV1, were cultured in a monolayer in Earle’s minimum essential medium with Earle’s salts supplemented with 10% fetal calf serum, 1% nonessential amino acids, 2 mM L-glutamine, 100 µg streptomycin/mL, 100 U penicillin/mL, and 0.4 µg/mL puromycin (referred to as Puro-EMEM) and kept at 37 °C in a humidified atmosphere of 5% CO2 in a suitable incubator (STERI-CyCLE CO2 Incubator Hepa Class 100, Thermo Electrón Corporation, Waltham, MA, USA). Cells were stored under liquid nitrogen and used for 15 generations from unfreezing.
For fluorometric experiments, HEK-293 cells stably expressing rTRPM8 or hTRPV1 were detached by means of Trypsin/EDTA solution, resuspended in DMEM-10%FCS and seeded at a concentration of 2 × 10^4 cells/mL.
(§2) Briefly human embryonic kidney cell line (HEK) stably transfected with rTRPM8 or hTRPV1 were seeded in 96-well plates at a cell density of 30,000 cells. After 2 days the medium was replaced with 100 μL of the dye loading solution Fluo-4 NW supplemented with probenecid 2.5 mM and incubated 1 h at 37 °C. The TRP ion channel activity was measured using POLASTAR plate reader (BMG Labtech, Ortenberg, Germany) setting the excitation wavelength at 485 nm and emission wavelength at 520 nm. The baseline fluorescence was recorded for 3 cycles before the addition of the vehicle, compound at different concentrations, and the antagonist, 10 μM AMTB for TRPM8 and Ruthenium red for TRPV1. Fluorescence intensity was recorded during 7 more cycles and agonist 100 μM menthol for TRPM8 or 10 μM capsaicin for TRPV1 was added. Fluorescence intensity was recorded during 10 more cycles.
Data analysis: The Z-factor was calculated in each assay using the following equation: […]. […] A decrease in menthol signal was expressed as a percentage of inhibition (%). All data are expressed as the mean ± standard deviation (SD). Data are expressed as the concentration exerting a half-maximal inhibition of agonist-induced (Ca^2+)^i elevation (IC50), which was calculated again using GraphPad Prism® software (GraphPad Prism 5, Graphpad Software, San Diego, CA, USA). The equation used was Y = Bottom + (Top − Bottom)/(1 + 10^((LogEC50-X) ^× HillSlope)), with the restriction of the minimum (Bottom = 0). All determinations were performed in triplicate (n = 3) in 3 independent experiments (n= 3).

hTRPV1 = target: T2, hTRPV1 (Homo sapiens, UniProt Q8NER1); test: Ca2+ fluorometric assay on HEK-293 cells stably expressing hTRPV1 (selectivity); type: cell-based
T2 construct: expressed in transfected cells
Experimental: as §1, with “unfreezing. […]” for “unfreezing.”
as §2, with “After 2 days the medium was replaced with 100 μL of the dye loading solution Fluo-4 NW supplemented with probenecid 2.5 mM and incubated 1 h at 37 °C.” left out, “cycles. […]” for “cycles.”

rTRPM8 = target: T3, rTRPM8 (Rattus norvegicus, UniProt Q8R455); test: Whole-cell patch-clamp on HEK-rTRPM8 cells, menthol-evoked currents; type: cell-based
T3 construct: expressed in transfected cells
Experimental: Dose-response curves were then recorded to evaluate the compound relative potencies.
Whole-cell patch-clamp recordings from HEK-rTRPM8 cells were carried out 2 days after seeding on 12-mm Ø glass coverslips treated with poly-L-lysine solution (Sigma Aldrich, Madrid, Spain); the intracellular pipette solution contained (in mM) 150 NaCl, 5 EGTA, 3 MgCl2, and 10 HEPES, adjusted to pH 7.2 with NaOH, and the extracellular solution contained (in mM) 150 NaCl, 6 CsCl, 1.5 CaCl2, 1 MgCl2, 10 D-glucose and 10 HEPES, adjusted to pH 7.4 with NaOH. The TRPM8 activity was measured by the application of two pulses of 100 μM menthol in a time interval of 2 min and 30-s perfusion of the different compound concentrations before the second menthol pulse.
The series resistance was <10 MΩ and to minimize voltage errors was compensated to 60–80%. All measurements were performed at 24–25 °C. Cell capacitance was measured and used to estimate the current density (J, pA/pF).
For the whole-cell patch-clamp experiments, results are expressed as the percentage of the remaining activation of the TRPM8 channel. This is calculated by normalizing the ratio (p2/p1) of testing conditions to the ratio (p2/p1) of the control condition. The analysis of the data was performed by GraphPad 6.0, the ordinary one-way ANOVA analysis followed by the post hoc Bonferroni test established multiple comparisons, and the ROUT method (Q = 10%) identified data outliers. […] Paired or unpaired Student’s t-tests were also used for data comparison between two groups. All data are expressed as the mean ± standard error of the mean (SEM) (n = 12–15).

[2] = test system: oxaliplatin-induced cold allodynia; test: Oxaliplatin-induced cold hypersensitivity, acetone drop test; type: in vivo, mice; conditions: for effect on oxaliplatin-induced cold hypersensitivity: acetone drop test
Text: TRPM8 antagonism is deeply related to analgesic in vivo effects and has been proposed as a suitable pharmacological strategy for the treatment of chronic pain, migraine, and painful syndromes. TRPM8 antagonists are particularly known to counteract the chemotherapy-induced neuropathic pain evoked by oxaliplatin [24, 27, 28, 29]. For these reasons we challenged compound 14 (BB 0322703) in vivo using the oxaliplatin-induced cold hypersensitivity assay. […]. […] In particular, a correspondence between the in vitro potency and the effective in vivo dose is typical for TRPM8 modulators in the oxaliplatin-induced neuropathic pain model. Extremely in-vitro potent compounds are effective also at lower doses […]. When in vitro potency is reduced, as also in the present case, in vivo efficacy decreases correspondingly. […] This is also the case of compound 14, which for these reasons could be considered a promising hit-compound for the development of new chemotypes as TRPM8 antagonists and a pharmacological tool for the treatment of neuropathic pain.
[…]. Care was taken to minimize the number of animals used and the pain and stress they experienced. All experimental procedures were approved by the Animal Care and Use Committees of Universidad Miguel Hernández and the regional government and were conducted according to the ethical principles of the International Association for the Study of Pain (IASP) for the evaluation of pain in conscious animals, the European Parliament and the Council Directive (2010/63/EU) and the Spanish law (RD 53/2013). Housing conditions were maintained at 21 ± 1 °C and 55 ± 15% relative humidity in a controlled light/dark cycle (light on between 8:00 a.m. and 8:00 p.m.). Animals had free access to food and water except during the habituation or the evaluation of nociceptive sensitivity. All parts of the study concerning animal care were performed under veterinary control.
Compound 14 (BB 0322703) was dissolved in 2.5% dimethyl sulfoxide (Merck, Darmstadt, Germany) and 2.5% cremophor EL (Merck) diluted in saline. […]
Oxaliplatin-induced neuropathic pain was induced by repeated oxaliplatin administration (Cat. No. 2623, Tocris, Bristol, UK). […] Nociceptive sensitivity was assessed before oxaliplatin treatment and 3 days after the last oxaliplatin administration.
Cold chemical thermal sensitivity was assessed using the acetone drop method as previously described. […] The responses were measured for 1 min with a digital stopwatch. For each measurement, the paw was sampled three times and the mean was calculated. […]
Behavioral data were analyzed with a repeated-measures ANOVA followed by a post-hoc Tukey test (GraphPad Prism 7.04, GraphPad Software Inc.). p-values lower than 0.05 were considered statistically significant.

T3 sequence (Q8R455 whole entry): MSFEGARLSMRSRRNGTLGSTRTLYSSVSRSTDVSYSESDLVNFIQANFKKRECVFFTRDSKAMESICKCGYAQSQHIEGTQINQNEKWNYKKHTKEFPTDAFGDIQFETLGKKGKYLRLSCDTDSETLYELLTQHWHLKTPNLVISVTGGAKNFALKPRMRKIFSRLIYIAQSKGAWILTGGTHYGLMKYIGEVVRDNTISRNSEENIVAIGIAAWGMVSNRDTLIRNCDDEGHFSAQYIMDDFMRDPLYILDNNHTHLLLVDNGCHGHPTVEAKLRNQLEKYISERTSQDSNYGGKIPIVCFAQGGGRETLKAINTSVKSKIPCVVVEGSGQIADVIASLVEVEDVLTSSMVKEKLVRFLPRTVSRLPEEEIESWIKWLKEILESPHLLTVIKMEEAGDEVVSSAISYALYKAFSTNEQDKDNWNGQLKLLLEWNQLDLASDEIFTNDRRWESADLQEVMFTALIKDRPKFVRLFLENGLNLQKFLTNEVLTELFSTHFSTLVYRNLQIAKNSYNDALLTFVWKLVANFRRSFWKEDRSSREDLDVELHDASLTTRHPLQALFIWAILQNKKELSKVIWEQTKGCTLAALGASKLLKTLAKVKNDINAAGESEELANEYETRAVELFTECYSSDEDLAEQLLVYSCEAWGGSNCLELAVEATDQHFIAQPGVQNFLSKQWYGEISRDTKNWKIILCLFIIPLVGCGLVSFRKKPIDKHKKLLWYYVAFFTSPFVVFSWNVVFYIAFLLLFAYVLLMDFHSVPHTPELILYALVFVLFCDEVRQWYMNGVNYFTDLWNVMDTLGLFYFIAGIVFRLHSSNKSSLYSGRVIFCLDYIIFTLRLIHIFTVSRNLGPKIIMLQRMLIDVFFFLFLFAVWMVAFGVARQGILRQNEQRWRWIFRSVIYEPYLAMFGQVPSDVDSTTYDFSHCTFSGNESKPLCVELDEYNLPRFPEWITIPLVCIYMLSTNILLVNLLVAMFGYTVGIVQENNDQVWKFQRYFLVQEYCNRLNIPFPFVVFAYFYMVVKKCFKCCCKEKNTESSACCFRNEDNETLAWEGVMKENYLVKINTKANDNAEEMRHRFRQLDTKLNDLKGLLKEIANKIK
T1 sequence (Q8R455 whole entry, canonical isoform): as the sequence (Q8R455 whole entry) above
T2 sequence (Q8NER1 whole entry): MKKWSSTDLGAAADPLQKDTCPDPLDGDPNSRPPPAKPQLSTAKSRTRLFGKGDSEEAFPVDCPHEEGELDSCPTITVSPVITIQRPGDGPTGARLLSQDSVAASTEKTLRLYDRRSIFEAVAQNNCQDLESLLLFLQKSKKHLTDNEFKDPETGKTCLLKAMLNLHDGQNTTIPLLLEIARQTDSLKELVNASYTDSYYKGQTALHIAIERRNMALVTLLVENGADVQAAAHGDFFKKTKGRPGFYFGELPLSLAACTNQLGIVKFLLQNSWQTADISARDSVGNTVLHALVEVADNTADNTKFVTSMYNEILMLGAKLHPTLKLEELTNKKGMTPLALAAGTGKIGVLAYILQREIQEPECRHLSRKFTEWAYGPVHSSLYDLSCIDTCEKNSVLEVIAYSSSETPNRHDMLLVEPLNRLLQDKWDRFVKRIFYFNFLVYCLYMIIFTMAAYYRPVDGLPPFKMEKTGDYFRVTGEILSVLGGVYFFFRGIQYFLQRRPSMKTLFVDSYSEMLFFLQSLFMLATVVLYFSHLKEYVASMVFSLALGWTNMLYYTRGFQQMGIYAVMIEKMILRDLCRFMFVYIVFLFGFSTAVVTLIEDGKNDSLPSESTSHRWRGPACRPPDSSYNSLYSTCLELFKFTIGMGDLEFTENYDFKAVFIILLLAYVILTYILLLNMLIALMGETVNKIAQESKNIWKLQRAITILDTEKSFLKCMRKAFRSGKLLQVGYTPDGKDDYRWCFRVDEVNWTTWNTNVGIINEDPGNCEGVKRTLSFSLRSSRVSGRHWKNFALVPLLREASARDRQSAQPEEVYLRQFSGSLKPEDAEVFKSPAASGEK

IC50 [1]	potency compared with AMTB [1]	Efficacy [1]	SMILES	also measured
5.52 ± 1.45 µM	comparable potencies to AMTB	90%	COC(=O)C1=C(Nc2ccccc2F)SC(=Cc2ccccc2OCC#CC(C)(O)c2ccccn2)C1=O (centres unmarked) [Compound 19]	EC50 (hTRPV1; agonist, normalized to capsaicine 10 μM = 100%, brackets 95% confidence interval, read-out: EC50 TRPV1 activation): 1.34 to 1.68 µM and 1.34 µM; Hill Slope, TRPV1 activation (hTRPV1; fit of dose-response curve, Bottom = 0): 0.67
11.1 ± 1.32 µM	comparable potencies to AMTB	95%	Cc1nn(C)c(Oc2ccc(Cl)cc2)c1-c1noc(C)c1C(=O)Nc1ccc(F)cc1 [Compound 5]	

The next lines start with the molecule.

SMILES	IC50 [1]	potency compared with AMTB [1]	Efficacy [1]	also measured
Cc1cccc(COc2ccccc2C(=O)N(CCCN)Cc2cccs2)c1 [AMTB, reference compound]			100%	IC50 ([1]; 100 μM menthol, HEK293 rTRPM8, mean ± SD of at least three independent measurements, read-out: IC50): 7.15 ± 1.24 µM
NCC1CCCN(CCc2cccc(F)c2)C1 (centres unmarked) [Compound 1]	10.2 ± 1.31 µM	comparable potencies to AMTB	85%	
CCOC(=O)C(C)Nc1ccccc1C(=O)NC(C)c1ccccc1 [Compound 14, Ethyl (R)-N-[2-{[(1-Phenylethyl)amino]carbonyl}phenyl]-2-aminopropionic acid]	0.25 ± 0.15 µM		100%	IC50/potency fold difference versus AMTB ([1]; calcium fluorometric IC50 compared with reference AMTB): about 30 fold; IC50 (rTRPM8): 1.25 ± 0.26 µM; effect on TRPM8 menthol-evoked currents (rTRPM8; compound at 10 μM, 100 μM menthol): abolishing the TRPM8 menthol-evoked currents; Hill slope, patch-clamp inhibition (rTRPM8; fit of dose-response curve, Top = 100): −1.23; efficacy in cold allodinya model ([2]; 30 μM dose (abstract)): showing pharmacological efficacy; effect on oxaliplatin-induced cold hypersensitivity ([2]; mice, intraplantar 10 µg): did not show significant modification of their nociceptive sensitivity; duration of inhibition of cold hypersensitivity ([2]; mice, intraplantar dose of 30 µg): at least 1 h; effect on oxaliplatin-induced cold hypersensitivity ([2]; mice, intraplantar dose of 30 µg, p < 0.05 vs. Oxaliplatin): significant inhibition of this cold hypersensitivity
